According to article PMC7217817 (Clinical Pharmacokinetics, 2019):
Where two headings read alike, the source gives them in different places.

What was measured:
[1] = tested on: P-gp; details: cited from earlier work; for Mean AUC∞ ratio of victim drug / Mean Cmax ratio of victim drug: Observed
[2] = target: T1, P-gp (Homo sapiens, UniProt P08183); details: in vitro and clinical studies; cited from earlier work
[3] = target: T1, P-gp; assay: P-gp inhibition; assay type: in vitro ADME; details: following administration of 150 or 200 mg of elagolix
[4] = Clinical multiple-dose pharmacokinetics of elagolix in healthy subjects; assay type: in vivo, human; details: for AUCτ / CL/F / Cmax: healthy subjects
[5] = cited from earlier work
[6] = single-dose elagolix 150 mg with ketoconazole 400 mg, Observed; cited from earlier work
[7] = Child–Pugh A patients compared with healthy volunteers; cited from earlier work
[8] = tested on: CYP3A; details: cited from earlier work
[9] = digoxin day 1 with elagolix 200 mg BID
[10] = digoxin day 10 with elagolix 200 mg BID
[11] = 150 mg QD (N = 6), Day 21, Observed
[12] = 200 mg BID (N = 7), Day 21, Observed
[13] = midazolam with elagolix 150 mg QD, Observed

T1 sequence (P08183 whole entry): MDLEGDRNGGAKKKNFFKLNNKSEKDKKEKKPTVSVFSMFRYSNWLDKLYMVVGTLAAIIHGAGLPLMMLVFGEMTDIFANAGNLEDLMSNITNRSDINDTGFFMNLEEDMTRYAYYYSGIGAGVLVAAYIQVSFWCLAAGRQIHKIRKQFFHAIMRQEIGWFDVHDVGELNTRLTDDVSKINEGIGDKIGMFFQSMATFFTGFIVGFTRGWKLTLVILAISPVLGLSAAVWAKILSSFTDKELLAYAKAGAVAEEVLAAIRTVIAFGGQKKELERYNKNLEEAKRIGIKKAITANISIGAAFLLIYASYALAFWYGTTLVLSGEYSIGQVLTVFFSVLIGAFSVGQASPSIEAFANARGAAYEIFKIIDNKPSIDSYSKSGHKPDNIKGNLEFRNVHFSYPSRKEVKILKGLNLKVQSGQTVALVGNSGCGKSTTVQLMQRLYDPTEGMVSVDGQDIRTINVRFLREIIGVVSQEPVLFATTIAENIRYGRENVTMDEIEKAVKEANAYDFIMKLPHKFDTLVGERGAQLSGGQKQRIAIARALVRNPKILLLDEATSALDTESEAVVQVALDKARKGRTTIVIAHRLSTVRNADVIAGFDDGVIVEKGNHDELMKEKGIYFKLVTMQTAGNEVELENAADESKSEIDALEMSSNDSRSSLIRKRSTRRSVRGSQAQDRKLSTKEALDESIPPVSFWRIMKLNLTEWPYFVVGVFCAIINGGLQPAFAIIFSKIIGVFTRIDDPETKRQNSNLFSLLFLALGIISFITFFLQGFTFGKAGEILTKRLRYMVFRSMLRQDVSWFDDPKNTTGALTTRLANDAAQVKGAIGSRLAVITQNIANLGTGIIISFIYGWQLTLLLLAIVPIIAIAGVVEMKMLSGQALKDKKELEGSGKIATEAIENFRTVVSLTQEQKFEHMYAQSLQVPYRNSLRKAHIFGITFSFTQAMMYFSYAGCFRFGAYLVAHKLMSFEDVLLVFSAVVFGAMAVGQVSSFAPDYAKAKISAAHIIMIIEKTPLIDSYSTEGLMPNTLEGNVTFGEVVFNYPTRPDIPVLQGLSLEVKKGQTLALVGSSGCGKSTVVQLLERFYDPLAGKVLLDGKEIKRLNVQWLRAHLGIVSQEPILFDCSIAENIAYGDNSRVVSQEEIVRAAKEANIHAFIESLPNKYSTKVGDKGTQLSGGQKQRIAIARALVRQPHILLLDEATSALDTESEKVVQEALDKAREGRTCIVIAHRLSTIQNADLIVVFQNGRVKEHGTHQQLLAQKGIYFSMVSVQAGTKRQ

## C[C@H]1O[C@@H](O[C@H]2[C@@H](O)C[C@H](O[C@H]3[C@@H](O)C[C@H](O[C@H]4CC[C@@]5(C)[C@H](CC[C@@H]6[C@@H]5C[C@@H](O)[C@]5(C)[C@@H](C7=CC(=O)OC7)CC[C@]65O)C4)O[C@@H]3C)O[C@@H]2C)C[C@H](O)[C@@H]1O [Digoxin, digoxin]
[1]; [9]
  Mean AUC∞ ratio of victim drug: 1.32
  Mean Cmax ratio of victim drug: 1.73
[1]; [10]
  Mean AUC∞ ratio of victim drug: 1.26
  Mean Cmax ratio of victim drug: 1.71
[1]; elagolix 200 mg BID, observed
  Increase in digoxin AUC: ~30%
  Increase in digoxin Cmax: approximately 70%

## CO[C@H]1/C=C/O[C@@]2(C)Oc3c(C)c(O)c4c(O)c(c(/C=N/N5CCN(C)CC5)c(O)c4c3C2=O)NC(=O)/C(C)=C\C=C\[C@H](C)[C@H](O)[C@@H](C)[C@@H](O)[C@@H](C)[C@H](OC(C)=O)[C@@H]1C [Rifampin, rifampin]
[2]
  Induction of P-gp expression: four folds

## COc1cccc(-c2c(C)n(Cc3c(F)cccc3C(F)(F)F)c(=O)n(C[C@H](NCCCC(=O)O)c3ccccc3)c2=O)c1F [elagolix]
[3]
  Ki for P-gp below predicted intestinal elagolix concentration in the gastrointestinal lumen: approximately 500 fold
[4]; 150 mg QD (N = 6), Day 1, Observed
  AUCτ: 1331 ng●h/mL
[4]; [11]
  AUCτ: 1292 ng●h/mL
  CL/F: 123 L/h
[4]; 200 mg BID (N = 7), Day 1, Observed
  AUCτ: 1813 ng●h/mL
[4]; [12]
  AUCτ: 1725 ng●h/mL
  CL/F: 144 L/h
[4]; human, plasma, oral, 150 mg
  Tmax: 1.3 h
  half-life: 6.42 h
[4]; human, plasma, oral, 150 mg, 150 mg QD (N = 6), Day 1, Observed
  Cmax: 507 ng/mL
[4]; human, plasma, oral, 200 mg
  half-life: 4.29 h
[4]; human, plasma, oral, 200 mg, 200 mg BID (N = 7), Day 1, Observed
  Cmax: 712 ng/mL
[5]; clinical doses of 150 mg QD and 200 mg BID
  Apparent terminal elimination half-life (t½): 4 to 6 h
[5]; oral administration
  Time of maximum plasma concentration (Cmax) after dosing: 1 h
[6]
  Mean Cmax ratio of elagolix: 1.77
[7]
  Impact of hepatic impairment on elagolix exposures: no impact

## Cc1ncc2n1-c1ccc(Cl)cc1C(c1ccccc1F)=NC2 [Midazolam, midazolam]
[8]; elagolix 150 mg QD, observed
  Decrease in midazolam AUC: 35%
[8]; [13]
  Mean AUC∞ ratio of victim drug: 0.65
  Mean Cmax ratio of victim drug: 0.81
